Experimental data published in publication PMC11926880, “Procognitive Potential of Neuroprotective Triazine 5-HT6 Receptor Antagonists Tested on Chronic Activity In Vivo in Rats: Computer-Aided Insight into the Role of Chalcogen-Differences on the Pharmacological Profile” (ACS Chemical Neuroscience, 2025).
Like-named read-outs stand apart in the source and are kept apart here.

What was measured:
[1] = tissue distribution pharmacokinetics after single i.p. administration; format: in vivo, rat; details: male, Wistar, rat, ip; for Cmax: read-out: Cmax; for Tmax: read-out: Tmax (converted)
Method: Standard laboratory food (LSM-B) and filtered water as well as environment enrichment were freely available. Animals were randomly divided into treatment groups using a computer-based random order generator. All of the experiments were performed by two observers unaware of the treatment applied between 9:00 and 14:00 on separate groups of animals. Rats were injected with the investigated compounds once (in pharmacokinetic studies) and for 21 days (in behavioral studies), and afterward, behavioral tests were conducted and tissue collection was done, as required. For pharmacokinetic studies, animals were fasted prior to dosing by withholding food but not water overnight. After dosing, the food was withheld for an additional 8 h. All animals were used only once. Animals were handled every day and weighed every other day in the chronic part of the experiment. Procedures involving animals and their care were conducted in accordance with current European Community and Polish legislations on animal experimentation. Additionally, all efforts were made to minimize animals' suffering and to use only the number of animals necessary to produce reliable scientific data. The experimental protocols and procedures described were approved by the I Local Ethics Commission in Cracow (nos 309/2019 and 765/2023) and complied with the European Communities Council Directive of 24 November 24, 1986 (86/609/EEC) and were in accordance with the 1996 NIH Guide for the Care and Use of Laboratory Animals. The research program complies with the commonly accepted '3Rs' (replacement and reduction of animals, refinement of experimental conditions, and procedures to minimize the harm to animals). […] Moreover, five tissues (i.e., brain, heart, lungs, kidneys, and liver) were harvested and rinsed with cold saline. Blood was allowed to clot at room temperature for 15-20 min and then centrifuged (3000 rpm for 10 min). The obtained serum and tissues were stored at -80 °C until analysis. […] HPLC analysis with UV detection at 221 nm was performed at a 1 mL/min flow rate, and the column temperature was 38 °C. Before analysis, tissue samples were thawed, weighed (200-250 mg), and placed in 5 mL plastic tubes with four volumes (w/v) of PBS (pH 7.4) and homogenized individually using a […]-1 homogenizer (ART Prozess & Labortechnik GmbH & Co., Germany). […] The samples were alkalized with 50 μL of 4 M sodium hydroxide solution, vortex-mixed, and extracted with 1 mL of ethyl acetate/hexane (30/70, v/v) mixture on a shaker (VXR Vibrax, IKA, Germany) for 20 min. […] Then, the samples were shaken and centrifuged again. Finally, 60-90 μL of each acidic layer was injected into the HPLC system. […] The interday and intraday precision and accuracy of quality control samples evaluated in the serum and tissue homogenates were within 15%. […] The area under the serum concentration-time curve from time zero to time t (AUC0-t), where t is the time of the last measurable sample, was calculated according to the linear trapezoidal rule. The AUC from time zero to infinity (AUC0-∞) was estimated as AUC0-t + Ct/λz, where Ct was the serum concentration of the last measurable sample. The clearance (CL/F) was calculated as D/AUC0-∞, and the volume of distribution based on the terminal phase (Vz/F) was estimated as D/(λz·AUC0-∞), where F is the bioavailability of intraperitoneal administration. The MRT is calculated to be […], where AMUC0-∞ is the area under the first moment curve from the time of dosing to infinity. The peak serum concentration (Cmax) and the time to reach Cmax (Tmax) were read directly from the observations. […] Data were presented as mean ± SD.

5-HT2AR = details: read-out: radioligand binding assay Ki; cloned receptors; cited from earlier work
HepG2 = tested on: HepG2; parameters: method as in PMID 38190615, PMID 35228010; details: tested at 0.1–100 μM; cited from earlier work
[2] = kidneys, 0.3 mg/kg, kidneys, 0.3 mg/kg i.p.
[3] = kidneys, 1 mg/kg, kidneys, 1.0 mg/kg i.p.
[4] = liver, 0.3 mg/kg, liver, 0.3 mg/kg i.p.
[5] = liver, 1 mg/kg, liver, 1.0 mg/kg i.p.
[6] = lungs, 0.3 mg/kg, lungs, 0.3 mg/kg i.p.
[7] = lungs, 1 mg/kg, lungs, 1.0 mg/kg i.p.

CN1CCN(c2nc(N)nc(C(C)(C)Sc3ccc4ccccc4c3)n2)CC1 [WA-22, 4-(4-methylpiperazin-1-yl)-6-(2-(naphthalen-2-ylthio)propan-2-yl)-1,3,5-triazin-2-amine]
Kp ([1]; heart/serum, 1 mg/kg, heart, 1.0 mg/kg i.p., read-out: AUC ratio (tissue-to-serum AUC0–t)): 2.63 ± 1.69 | Kp ([1]; heart/serum, 1 mg/kg, heart-to-serum, 1 mg/kg i.p., read-out: AUC0–∞ (ng·h/g)/AUC0–∞ (ng·h/mL)): 2.09 ± 2.71 | Kp ([1]; heart/serum, 1 mg/kg, heart-to-serum, 1 mg/kg i.p., read-out: Cmax (ng/g)/Cmax (ng/mL)): 2.61 ± 1.09 | MRT ([1]; brain, 0.3 mg/kg i.p.): 64.4 min | MRT ([1]; brain, 1.0 mg/kg i.p.): 90.6 min | MRT ([1]; heart, 0.3 mg/kg i.p.): 104 min | MRT ([1]; heart, 1.0 mg/kg i.p.): 109 min | MRT ([1]; kidneys, 0.3 mg/kg i.p.): 85.3 min | MRT ([1]; kidneys, 1.0 mg/kg i.p.): 107 min | MRT ([1]; liver, 0.3 mg/kg i.p.): 40.6 min | MRT ([1]; liver, 1.0 mg/kg i.p.): 51.3 min | MRT ([1]; lungs, 0.3 mg/kg i.p.): 130 min | MRT ([1]; lungs, 1.0 mg/kg i.p.): 72.6 min | Cmax [1, 2]: 72.3 ± 27.1 ng/g | Tmax [1, 2]: 5 min | Cmax [1, 3]: 247 ± 119 ng/g | Tmax [1, 3]: 5 min | Kp ([1]; kidneys/serum, 0.3 mg/kg, kidneys, 0.3 mg/kg i.p., read-out: AUC ratio (tissue-to-serum AUC0–t)): 3.93 ± 1.88 | Kp ([1]; kidneys/serum, 1 mg/kg, kidneys, 1.0 mg/kg i.p., read-out: AUC ratio (tissue-to-serum AUC0–t)): 5.47 ± 3.33 | Kp ([1]; kidneys/serum, 1 mg/kg, kidneys-to-serum, 1 mg/kg i.p., read-out: AUC0–∞ (ng·h/g)/AUC0–∞ (ng·h/mL)): 4.96 ± 3.2 | Kp ([1]; kidneys/serum, 1 mg/kg, kidneys-to-serum, 1 mg/kg i.p., read-out: Cmax (ng/g)/Cmax (ng/mL)): 3.41 ± 0.59 | Kp ([1]; liver (relative to serum), 1 mg/kg, liver, 1.0 mg/kg i.p., read-out: AUC ratio (tissue-to-serum AUC0–t)): 6.32 ± 4.96 | Cmax [1, 4]: 149 ± 34.8 ng/g | Tmax [1, 4]: 5 min | Cmax [1, 5]: 404 ± 101 ng/g | Tmax [1, 5]: 5 min | Kp ([1]; liver/serum, 0.3 mg/kg, liver, 0.3 mg/kg i.p., read-out: AUC ratio (tissue-to-serum AUC0–t)): 4.75 ± 1.57 | Kp ([1]; liver/serum, 1 mg/kg, liver-to-serum, 1 mg/kg i.p., read-out: AUC0–∞ (ng·h/g)/AUC0–∞ (ng·h/mL)): 5.11 ± 3.85 | Kp ([1]; liver/serum, 1 mg/kg, liver-to-serum, 1 mg/kg i.p., read-out: Cmax (ng/g)/Cmax (ng/mL)): 6.3 ± 2.69 | Kp ([1]; lungs (relative to serum), 1 mg/kg, lungs, 1.0 mg/kg i.p., read-out: AUC ratio (tissue-to-serum AUC0–t)): 14.1 ± 5.62 | Cmax [1, 6]: 214 ± 45.7 ng/g | Tmax [1, 6]: 5 min | Cmax [1, 7]: 744 ± 88.9 ng/g | Tmax [1, 7]: 5 min | Kp ([1]; lungs/serum, 0.3 mg/kg, lungs, 0.3 mg/kg i.p., read-out: AUC ratio (tissue-to-serum AUC0–t)): 11.1 ± 2.57 | Kp ([1]; lungs/serum, 1 mg/kg, lungs-to-serum, 1 mg/kg i.p., read-out: AUC0–∞ (ng·h/g)/AUC0–∞ (ng·h/mL)): 13.9 ± 7.95 | Kp ([1]; lungs/serum, 1 mg/kg, lungs-to-serum, 1 mg/kg i.p., read-out: Cmax (ng/g)/Cmax (ng/mL)): 15 ± 7.31 | Ki (5-HT2AR): 39 nM | hepatotoxic (statistically significant HepG2 viability decrease) (HepG2): >25 µM
